The results in this text go back to ChEMBL document CHEMBL2321822, “Synthesis and biological evaluation of 1-(6-methylpyridin-2-yl)-5-(quinoxalin-6-yl)-1,2,3-triazoles as transforming growth factor-β type 1 receptor kinase inhibitors” (Bioorg Med Chem Lett, 2013).

Each structure is given as a SMILES string.

Assay [1] addresses Mitogen-activated protein kinase 14 (Homo sapiens) (UniProt Q16539). Kind of assay: Inhibition of human P38alpha/MAPK at 10 uM in presence of 1 microM ATP.
For assay [2], the target named is T1, TGF-beta receptor type-1 (Homo sapiens) (UniProt P36897).
T1 sequence (whole entry): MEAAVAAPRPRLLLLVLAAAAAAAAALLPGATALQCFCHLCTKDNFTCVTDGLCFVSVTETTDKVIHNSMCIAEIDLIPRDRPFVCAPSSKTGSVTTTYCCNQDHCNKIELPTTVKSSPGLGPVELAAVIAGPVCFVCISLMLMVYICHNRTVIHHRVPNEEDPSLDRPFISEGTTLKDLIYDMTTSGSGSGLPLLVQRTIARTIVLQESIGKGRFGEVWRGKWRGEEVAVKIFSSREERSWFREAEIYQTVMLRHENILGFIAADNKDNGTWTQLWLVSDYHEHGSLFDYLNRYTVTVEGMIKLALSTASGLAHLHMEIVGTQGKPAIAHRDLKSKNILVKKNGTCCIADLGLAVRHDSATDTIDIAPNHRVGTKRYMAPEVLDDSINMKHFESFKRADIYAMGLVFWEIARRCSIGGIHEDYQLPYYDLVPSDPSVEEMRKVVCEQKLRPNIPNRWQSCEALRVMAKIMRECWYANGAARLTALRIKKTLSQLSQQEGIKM
Kind of assay: Inhibition of human ALK5 at 10 uM in presence of 1 microM ATP relative to control.

Another assay addresses T2, TGF-beta receptor type-1 (Homo sapiens, UniProt P36897).
T2 sequence (P36897 whole entry): T1 sequence (whole entry)
Put plainly: Inhibition of human ALK5 in presence of 1 microM ATP.

Sequence of Mitogen-activated protein kinase 14 (Homo sapiens) (Q16539 whole entry): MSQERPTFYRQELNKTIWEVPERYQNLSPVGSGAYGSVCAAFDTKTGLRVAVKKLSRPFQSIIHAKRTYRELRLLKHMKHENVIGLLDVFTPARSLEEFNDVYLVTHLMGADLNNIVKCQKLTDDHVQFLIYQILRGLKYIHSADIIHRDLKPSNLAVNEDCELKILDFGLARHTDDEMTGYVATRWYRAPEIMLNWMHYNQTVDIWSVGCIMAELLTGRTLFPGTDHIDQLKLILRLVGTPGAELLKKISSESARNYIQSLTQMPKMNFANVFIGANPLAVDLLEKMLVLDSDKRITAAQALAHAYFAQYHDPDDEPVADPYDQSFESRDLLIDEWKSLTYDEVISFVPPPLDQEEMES

As usually defined, the inhibition is the relative decrease from the control value, in per cent. Consider `Cc1ccc(-c2nnn(-c3cccc(C)n3)c2-c2ccc3nccnc3c2)cc1`, for which the results for the inhibition in assay [1] and in assay [2] were -5.07% and 20.7%, respectively.

On to `Cc1cccc(-n2nnc(-c3ccccc3)c2-c2ccc3nccnc3c2)n1`, for which the inhibition in assay [1] was 31.2%; in assay [2], -4.94%.

One may read the IC50 as the concentration that gives 50% inhibition. Turning to `Cc1cccc(-n2nnc(CCC(C)C)c2-c2ccc3nccnc3c2)n1`, the values for the inhibition in assay [1] and in assay [2] were -5.91% and 73.1%, respectively. Also, the half-inhibitory concentration (IC50) on TGF-beta receptor type-1 was 8.6 µM.

`Cc1cccc(-n2nnc(Cc3ccccc3)c2-c2ccc3nccnc3c2)n1`: the inhibition in assay [1] was -1.94%; in assay [2] it was 80.8%. For the same compound, the half-inhibitory concentration (IC50) on TGF-beta receptor type-1 was found to be 4.69 µM.

`Cc1cccc(-n2nnc(-c3ccc(F)cc3)c2-c2ccc3nccnc3c2)n1`: the inhibition in assay [1] came to 30.9%; in assay [2], 8.19%.

Consider `COc1ccccc1-c1nnn(-c2cccc(C)n2)c1-c1ccc2nccnc2c1`, for which the inhibition was found to be 18.4% in assay [1] and 34.9% in assay [2]. Moreover, the IC50 at TGF-beta receptor type-1 was 34.5 µM.

Consider `COc1ccc(-c2nnn(-c3cccc(C)n3)c2-c2ccc3nccnc3c2)cc1`, for which the inhibition in assay [2] was 0.26%.

As for `Cc1cccc(-n2nnc(CCCCO)c2-c2ccc3nccnc3c2)n1`, the inhibition in assay [2] worked out at 20.4%. The half-maximal inhibitory concentration (IC50) on TGF-beta receptor type-1 was determined as 50.8 µM.

With `COc1cc(OC)cc(-c2nnn(-c3cccc(C)n3)c2-c2ccc3nccnc3c2)c1`, the results for the inhibition in assay [1] and in assay [2] were -6.87% and 23.4%, respectively.

For the compound `CCCCc1nnn(-c2cccc(C)n2)c1-c1ccc2nccnc2c1`, the inhibition is -2.52% in assay [1] and 70% in assay [2]. Further, the IC50 at TGF-beta receptor type-1 was determined as 7.38 µM.

For the compound `Cc1cccc(-n2nnc(-c3cc(F)cc(F)c3)c2-c2ccc3nccnc3c2)n1`, the inhibition was found to be 40.4% in assay [1] and 17.4% in assay [2].
